According to patent publication US20140243415A1, “COMPOUNDS INHIBITING GALECTIN-1 EXPRESSION, CANCER CELL PROLIFERATION, INVASION, AND TUMORIGENESIS” (ONCOETHIX SA, priority 2011, published 2014):

Experiments:
[1] = tested on: SQ20B cells; assay: Cell cycle analysis by flow cytometry; assay type: cell-based, human; conditions: 72 h exposure
Description: Cell cycle analysis was assessed by flow cytometry. In brief, cells were seeded onto […] flasks and treated with various concentrations of OTX-008. After 72 h exposure, adherent and non-adherent cells were recovered, washed with PBS, fixed in 70% ethanol and stored at −20° C. until use. Cells were rehydrated in PBS, incubated for 30 minutes at 37° C. with 200 μg/ml RNAse A, and for 20 minutes at +4° C. with 40 μg/ml propidium iodide in the dark. The cell cycle distribution was determined with a flow cytometer (FACSCalibur and Cell Quest Pro software, BD Biosciences, Le-Pont-de-Claix, France).
To study the mechanism of OTX-008-induced inhibition of cell proliferation, the effect of OTX-008 on cell cycle in SQ20B cells was examined (FIG. 5B). […] Activation of cdc2 (cdk1) by de-phosphorylation of tyrosine 15 is required for G2/M transition. […] Thus, the level of phosphorylated cdc2 on tyrosine 15 and wee1 on serine 642 in SQ20B cell line were exposed to 3 μM OTX-008 for 72 h. […] In order to determine the potential relationship between the inhibition of MAPK signaling pathways and the effects on cell cycle by OTX-008, SQ20B cells were pretreated for 2 h with the ERK1/2 inhibitor UO126 followed by the OTX-008 addition for 72 hours.

[2] = tested on: wee1 (serine 642); assay: Western blot of phosphorylated wee1 in SQ20B; assay type: cell-based, human; conditions: 3 μM OTX-008 for 72 h
Description: (§1) Cells were lysed in buffer containing 50 mM HEPES (pH 7.6), 150 mM NaCl, 1% Triton X-100, 2 mM sodium vanadate, 100 mM NaF, and 0.4 mg/ml phenylmethylsulfonyl fluoride. Equal amounts of protein (30 μg/lane) were subjected to SDS-PAGE and transferred to nitrocellulose membranes. Membranes were blocked with 5% milk in 0.05% Tween 20/phosphate-buffered saline and then incubated with the primary antibody overnight. Membranes were then washed and incubated with the secondary antibody conjugated to horseradish peroxidase. Bands were visualized by using the enhanced chemiluminescence Western blotting detection system. Densitometric analysis was performed under conditions that yielded a linear response. The following antibodies were used: anti-p-cdc2 (tyr15), anti-p-wee1 (ser642), anti-p-p44/42 MAPK (thr202/tyr204), anti-p44/42, anti-p-AKT (ser473), anti-AKT, anti-p-S6 (ser235/236) (Cell Signaling, Saint Quentin Yvelines, France), anti-p-PKCα (ser657) (BD Biosciences, Le-Pont-de-Claix, France) and anti-galectin-1 (Abcam, Cambridge, Mass., USA). All antibodies were used at a 1:1000 dilution.
(§2) To study the mechanism of OTX-008-induced inhibition of cell proliferation, the effect of OTX-008 on cell cycle in SQ20B cells was examined (FIG. 5B). […] Activation of cdc2 (cdk1) by de-phosphorylation of tyrosine 15 is required for G2/M transition. […]

[3] = target: T1, galectin-1 (Homo sapiens, UniProt P09382); assay: Western blot of galectin-1 in SQ20B cells; assay type: cell-based; conditions: 3 μM OTX-008, 48 and 72 h exposure
T1 construct: Western Blot of galectin-1 on SQ20B cells treated with 3 μM OTX-008 for 24 h, 48 h and 72 h; endogenous in cells; host or cells: SQ20B (ATCC)
T1 sequence (P09382 whole entry): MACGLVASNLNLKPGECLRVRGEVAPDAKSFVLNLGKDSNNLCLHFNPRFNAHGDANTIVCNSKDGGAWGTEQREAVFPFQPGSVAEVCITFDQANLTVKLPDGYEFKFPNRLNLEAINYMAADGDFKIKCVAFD
Description: FIG. 3. Effects of OTX-008 on galectin-1 expression and localization. A—Western Blot of galectin-1 on SQ20B cells treated with 3 μM OTX-008 for 24 h, 48 h and 72 h. B and C—Immunofluorescence of galectin-1 on SQ20B cells treated with 3 μM OTX-008 for 24 and 48 h. B—OTX-008 treatment decreases galectin-1 immunostaining in SQ20B cells. C—Galectin-1 translocates into the nucleus after OTX-008 exposure. D—Western Blot of p-AKTser473, AKT, p-S6, p-ERK1/2, ERK and p-PKCα in SQ20B cells treated with 3 μM OTX-008 for 10 min, 1 h, 2 h, 5 h and 24 h.
FIG. 4. OTX-008-induced galectin-1 oxydation and degradation by the proteosome system A—Western Blot of galectin-1 on SQ20B cells treated 48 h with 10 μM N-acetylcysteine (NAC), 55 μM β-mercaptoethanol (βME), 1 mM Tempol and 10 μM co-enzyme Q10 (Q10) with or without 3 μM OTX-008. B—Western Blot of galectin-1 on SQ20B cells treated 48 h with 3 μM OTX-008, pretreated 2 h with proteasome inhibitor Bortezomib (10 nM) and then treated 48 h with 3 μM OTX-008 (BTZ—OTX-008) or treated 48 h with 10 nM Bortezomib+3 μM OTX-008 (BTZ+OTX-008).
Cells were lysed in buffer containing 50 mM HEPES (pH 7.6), 150 mM NaCl, 1% Triton X-100, 2 mM sodium vanadate, 100 mM NaF, and 0.4 mg/ml phenylmethylsulfonyl fluoride. Equal amounts of protein (30 μg/lane) were subjected to SDS-PAGE and transferred to nitrocellulose membranes. […]

[4] = tested on: cdc2 (tyrosine 15); assay: Western blot of phosphorylated cdc2 in SQ20B; assay type: cell-based, human; conditions: 3 μM OTX-008 for 72 h
Description: as §1, §2

[5] = tested on: panel of human cancer cell lines; assay: MTT cell cytotoxicity assay, cell line panel; assay type: cell-based; conditions: Homo sapiens; remaining cell lines (other than SQ20B, OVCAR3, A2780-1A9)
Description: Cell survival was determined using the MTT assay (3-[4,5-dimethylthiazol-2-yl]-2,5-diphenyltetrazolium bromide; Sigma, Saint-Quentin Fallavier, France). The conversion of yellow water-soluble tetrazolium MTT into purple insoluble formazan is catalyzed by mitochondrial dehydrogenases and used to estimate the number of viable cells. In brief, cells were seeded in 96-well tissue culture plates at a density of 2×10^3 cells/well. After 72 h drug exposure and 48 h wash-out, cells were incubated with 0.4 mg/ml MTT for 4 hours at 37° C. After incubation, the supernatant was discarded, insoluble formazan precipitates were dissolved in 0.1 ml of DMSO and the absorbance was measured at 560 nm by use of a microplate reader (Thermo, France). […] IC50's were determined as the halves of maximal inhibitory drug concentration for each cell line.
The antiproliferative effects of OTX-008 and anginex were assessed using MTT assay in a panel of human cancer cell lines of human origins expressing various levels of Lgals-1 mRNA and galectin-1 protein expressions (Supplementary Table 1). […] No correlation between mRNA expressions of galectin-2, galectin-3, and galectin-8 as well as semaphorin-3A, semaphorin-3B, neuropilin-1, VEGFR1-3, VEGFA-D, and PDGFRa&P3 and sensitivity to OTX-008 were detected in the panel.

CN(C)CCNC(=O)COc1c2cccc1Cc1cccc(c1OCC(=O)NCCN(C)C)Cc1cccc(c1OCC(=O)NCCN(C)C)Cc1cccc(c1OCC(=O)NCCN(C)C)C2 [OTX-008]
cell cycle distribution [1]: dose-dependent accumulation of cells in G2/M phase
wee1 phosphorylation on serine 642 [2]: decreased inactivating phosphorylation of wee1
galectin-1 protein expression [3]: decreased galectin-1 protein expression
cdc2 activity (phosphorylation on tyrosine 15) [4]: inactivated cdc2
GI50 [5]: > 9 µM
